Data: US11278521B2, “GAS5 binding compounds, formulations, and uses thereof” (UNIVERSITY OF SOUTH FLORIDA, priority 2015, dated 2022)
“Also recorded” adds a separate entry of the source.

Experiments:
GAS5 [1] = test: screen of γ-AApeptide one-bead-one-compound combinatorial library with fluorescein tagged GAS5 oligonucleotide probe and validation; format: binding; details: positive beads from screen of 160,000 molecules, tRNA as control
Description: The interaction between UPF1 and GAS5 was disrupted using a γ-AApeptide based one-bead-one-compound (OBOC) combinatorial library (Wu H, Li Y, Bai G, Niu Y, Qiao Q, Tipton J D, Cao C, Cai J. gamma-AApeptide-based small-molecule ligands that inhibit Abeta aggregation. Chemical communications. 2014; 50(40):5206-8. doi: 10.1039/c3cc46685j. PubMed PMID: 24158240). The γ-AApeptide is a peptidomimetic with side chains for chemical diversity and are resistant to proteolytic cleavage. To screen the compound library, a probe that contained a fluorescein tagged oligonucleotide was synthesized. The probe spanned 30 nucleotides on either side of the UAA sequences on GAS5 (FIG. 2) The fluorescein was attached to the 5′end (beginning of oligonucleotide probe sequence). The nucleotide sequence within the GAS5 IncRNA that the oligonucleotide probe binds to can be about 100% identical to […] […]
The length of oligonucleotide was required to maintain stem loop structure to specifically bind to GAS5. […] The compound having a structure according to Formula 3 was determined to have a chemical formula of C68H92N10O9S, a mass of about 1224.6769, and a molecular weight of 1225.6050. The compound having a structure according to Formula 14 was determined to have a chemical formula of C63H85N9O13S, a mass of about 1207.5988, and a molecular weight of 1208.4830.

GAS5 [2] = test: GAS5 levels in DM adipocytes by SYBR Green qPCR; format: cell-based; details: 20 nM, about 24 hours
Experimental: Strategy for compound design: GAS5 transcript may be targeted to faster turnover by nonsense mediated RNA decay. GAS5 transcript has a premature termination codon which renders greater susceptibility for nonsense mediated RNA decay. […] GAS5 and UPF1 levels were measured in NDM and DM adipocytes.
DM adipocytes were treated with G5-1397 (20 nM) for about 24 hours. GAS5 levels were measured using SYBR Green qPCR.

GAS5 transcript = test: RNA-EMSA (REMSA) with biotin-labeled in vitro transcribed GAS5; format: binding; details: 0.1 nM biotin-labeled GAS5, 10 nM compound, 10U yeast tRNA, 20 min at room temperature
Experimental: RNA-EMSA was performed as previously described (see e.g. Apostolatos, H., Apostolatos, A., Vickers, T., Watson, J. E., Song, S., Vale, F., Cooper, D. R., Sanchez-Ramos, J., and Patel, N. A. (2010) Vitamin A metabolite, all-trans-retinoic acid, mediates alternative splicing of protein kinase C deltaVIII (PKCdeltaVIII) isoform via splicing factor SC35. J Biol Chem 285, 25987-25995 and Patel, R. S., Carter, G., Cooper, D. R., Apostolatos, H., and Patel, N. A. (2014) Transformer 2beta homolog (Drosophila) (TRA2B) regulates protein kinase C deltal (PKCdeltal) splice variant expression during 3T3L1 preadipocyte cell cycle. J Biol Chem 289, 31662-31672.
Briefly, GAS5 was cloned in TOPO vector which has the T7 promoter. In vitro transcription assay was performed with biotin-label using RiboScribe kit using T7 RNA polymerase at 37° C. for 2 h in the presence of nucleotides, RNase inhibitor, and 5× transcription buffer. 0.1 nM of transcribed, biotin-labeled GAS5 was incubated with 10 nM G5-1397 in presence of 10U yeast tRNA and 10 units of RNase inhibitor in a final volume of 10 μl of RNA shift buffer for 20 min at room temperature and detected using Biotin Chromogenic Detection kit (ThermoFisher). […] Using the same assay, compounds according to Formulas 4-19 were also observed to bind GAS5 long non-coding RNA.

DM adipocytes = test: cell viability assay after treatment with compound; format: cell-based; details: DM adipocytes treated with compound, cell viability assay (FIG. 3B)

Row | Structure (SMILES) | ability to bind GAS5 (GAS5 [1]) | GAS5 levels (GAS5 [2]) | binding to GAS5 transcript (GAS5 transcript) | cell toxicity (DM adipocytes)
1 | C[C@H]1CN(C(=O)CC2CC2)CC(=O)N[C@@H](CCC(=O)O)CN(C(=O)CCC2CCCCC2)CC(=O)N[C@@H](Cc2ccccc2)CN(CC(N)=O)C(=O)CCSCc2ccc(cc2)C(=O)N[C@@H](Cc2ccccc2)CN(C(=O)CCC(=O)O)CC(=O)N1 [Formula 14] | able to bind GAS5 | – | – | –
2 | CC(C)C[C@H]1CN(C(=O)CC2CC2)CC(=O)N[C@@H](CCCCN)CN(C(=O)CCc2ccccc2)CC(=O)N[C@@H](Cc2ccccc2)CN(CC(N)=O)C(=O)CCSCc2ccc(cc2)C(=O)N[C@@H](Cc2ccccc2)CN(C(=O)CC2CC2)CC(=O)N1 [Formula G5-1397] | able to bind GAS5 | substantially increases GAS5 levels | bound to GAS5 transcript; also recorded: GAS5 transcript binding | without causing cell toxicity
